Measured values as given in patent publication US12012394B2, “Alpha-synuclein ligands” (Washington University, priority 2018, dated 2024).
Values joined by “and” are separate entries in the source; they are usually repeats but may differ in a detail not shown here. Equal entries are not always repeated.

Columns and labels:
[1] = biological target: Aβ fibrils (Homo sapiens (Human), UniProt P05067); assay: Homologous competition radioligand binding assay, Aβ fibrils; details: 150 nM Aβ fibrils
Experimental: Synthetic Aβ1-42 peptide (1 mg) (Bachem, Torrance, CA) was first dissolved in 50 μl DMSO. An additional 925 μl of mQ-H2O was added. Finally, 25 μl 1M Tris-HCl pH 7.6 was added to bring the final peptide concentration to 222 μM (1 mg/ml). The dissolved peptide was incubated for 30 h at 37° C. with shaking at 1000 rpm in an Eppendorf Thermomixer. Fibril formation was confirmed by ThioT fluorescence. To determine the concentration of fibrils, the fibril reaction mix was centrifuged at 15,000×g for 15 min to separate fibrils from monomer. The concentration of Aβ monomer in the supernatant was determined in a BCA protein assay using a BSA standard curve that contained DMSO at a percentage equivalent to the samples. […]
These direct binding assays used a fixed concentration of either fibrils or PD/AD tissue and the radioligand (e.g., [^18F]28) and varying concentration ranges of corresponding homologous non-radiolabeled standard reference compound. […] Reactions were incubated at 37° C. for 1 h before quantifying bound radioligand. […] Filters containing the bound ligand were mixed with 150 μL of Optiphase Supermix scintillation cocktail (PerkinElmer) and counted immediately. […] The dissociation constant (Kd) and the maximal number of binding sites (Bmax) values were determined by fitting the data to the equation. […]

[2] = biological target: Banner seeded fibrils (Homo sapiens (Human), UniProt P37840); assay: Saturation binding of [125I]TZ61-84 to Banner seeded fibrils; details: 100 nM Banner seeded fibrils, saturation binding
Experimental: The binding efficacy (Kd) of TZ-61-84 was determined using a modified protocol. Specifically, saturation plots of radiolabeled [^125I]TZ61-84 were obtained measuring total and nonspecific binding of TZ61-84 to 100 nM Banner seeded fibrils. The results are depicted in FIG. 15B-15D and that TZ61-84 has a high binding affinity to α-synuclein (Kd<1 nM).

Aβ fibrils, sequence (P05067 672-713): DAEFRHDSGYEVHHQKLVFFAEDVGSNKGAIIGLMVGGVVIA

Kd [1]: 12 nM
Kd [2]: 0.34 nM and 0.5 nM
Compound: COc1ccc2nc(-c3csc(C=O)c3)ccc2c1 [TZ55-81]
